Assay [1] concerns the target T1, yeast AAC carrier 3 (yAAC3), mitochondrial ADP/ATP carrier (Saccharomyces cerevisiae, UniProt P18238). As to the kind of experiment: NMR chemical shift titration. The format is binding.
Assay [2] concerns the target T1, yeast AAC carrier 3 (yAAC3), mitochondrial ADP/ATP carrier. Kind of assay: ITC. The format is binding.

Molecules are shown by their SMILES.

T1 sequence (P18238 whole entry): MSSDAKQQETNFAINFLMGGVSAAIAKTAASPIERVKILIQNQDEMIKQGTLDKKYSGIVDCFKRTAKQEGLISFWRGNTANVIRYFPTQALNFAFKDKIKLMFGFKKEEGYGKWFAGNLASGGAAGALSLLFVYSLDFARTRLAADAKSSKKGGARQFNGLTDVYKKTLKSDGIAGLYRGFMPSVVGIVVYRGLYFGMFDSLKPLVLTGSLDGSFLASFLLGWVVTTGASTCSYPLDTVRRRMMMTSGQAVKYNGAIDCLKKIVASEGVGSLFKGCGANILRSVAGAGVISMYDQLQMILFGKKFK

One may read the Kd as the free concentration of one partner at which half of the binding sites on the other are occupied at equilibrium, for simple one-to-one binding. For the compound `Nc1ncnc2c1ncn2[C@@H]1O[C@H](COP(=O)(O)OP(=O)(O)O)[C@@H](O)[C@H]1O` [ADP], the Kd in assay [1] was about 500 µM.
As to `C=C1[C@@H]2CC[C@H]3[C@]4(C)C[C@H](O[C@@H]5O[C@H](CO)[C@@H](OS(=O)(=O)O)[C@H](OS(=O)(=O)O)[C@H]5OC(=O)CC(C)C)CC(C(=O)O)(C(=O)O)[C@H]4CC[C@]3(C2)[C@H]1O` [CATR, carboxyatractyloside], in assay [2], the Kd amounted to 14.9 ± 9.6 µM.

Source of the values: publication PMC4527935 (Nature structural & molecular biology, 2015).
